Laboratory results published in patent publication EP4696306A1, “ADENOSINE TRIPHOSPHATE SECRETION INHIBITOR, HEPATIC STELLATE CELL ACTIVATION INHIBITOR, HEPATIC STELLATE CELL DEACTIVATOR, HEPATIC FIBROSIS THERAPEUTIC AGENT, NON-ALCOHOLIC STEATOHEPATITIS THERAPEUTIC AGENT, PSORIASIS THERAPEUTIC AGENT, AND USE OF COMPOUND FOR PRODUCING ADENOSINE TRIPHOSPHATE …” (KURUME UNIVERSITY, priority 2023, dated 2024).

What follows are compounds tested on ATP transport activity in isolated chromaffin granule membranes (assay: ATP transport (3H-ATP uptake) in chromaffin granule membrane vesicles). Settings: PEP analogs.
Assay type: biochemical, bovine
Description: (§1) Chromaffin granule membranes were prepared from adrenal glands collected from slaughtered cattle according to Reference A (Nathan Nelson et al., 1988, Chromaffin Granule Proton Pump, Methods in Enzymology, 157, 619-633). Chromaffin granule membranes prepared by sucrose density gradient centrifugation were suspended in 2 ml of SME buffer (20 mM MOPS-tris (pH 7.0), 0.3 M sucrose, 5 mM EDTA, 10 µg/ml leupeptin, and 10 µg/ml pepstatin) + 25% glycerol, and the resulting suspension was aliquoted and stored at -80°C. Under these conditions, the ATP transport activity, the V-ATPase activity, and the catecholamine transport activity remain fully active for at least one year.
An ATP transport inhibition experiment for the chromaffin granule membrane was carried out according to Reference B (Yoshinori Moriyama et al., 2022, Is the vesicular nucleotide transporter a molecular target of eicosapentaenoic acid?, Frontiers in Pharmacology, 103389). About 20 µg of chromaffin granule membranes were added to 0.5 ml of measurement buffer (20 mM MOPS-tris (pH 7.0), 0.3 M sucrose, 5 mM potassium chloride, 5 mM magnesium acetate, 5 mM creatine phosphate, 10 units of creatine kinase, and 1 mM ^3[H]-ATP [15 KBq/assay]), followed by incubation at 30°C for 1 hour. Through a Millipore MCE membrane filter with a pore size 0.45 µm, 0.2 ml of the reaction liquid was filtered by suction. Thereafter, the filter was washed with 10 ml of 20 mM MOPS-tris (pH 7.0), 0.3 M sucrose, 5 mM potassium chloride, and 5 mM magnesium acetate, and dissolved in 10 ml of Clear-sol II (manufactured by Nacalai Tesque, Inc.). The radioactivity was then measured using a liquid scintillation counter (N = 3).
The reaction was initiated by adding 50 mM ^3[H]-ATP to a final concentration of 1 mM. The 50 mM ^3[H]-ATP was prepared by mixing an ATP-tris solution (manufactured by Sigma-Aldrich) with [2,8-^3H] adenosine triphosphate tetrasodium salt (26.0 Ci/mmol) (manufactured by New England Nuclear). PEP was used as a test reagent, and pyruvic acid was used as a negative control. Five minutes before the addition of ATP, PEP or pyruvic acid, as a solution in 20 mM MOPS-tris (pH 7.0), 0.3 M sucrose, 5 mM potassium chloride, and 5 mM magnesium acetate, was added to the measurement liquid to a final PEP concentration of 0.02, 0.05, 0.1, 0.2, 0.4, or 1 mM, or to a final pyruvic acid concentration of 0.5 or 1 mM.
(§2) Chromaffin granule membrane vesicles were prepared in the same manner as in Example 5, and uptake of radiolabeled ATP into the vesicles was measured. Transport activity of catecholamine (dopamine) and ATP-dependent proton transport by V-ATPase were also measured in the same manner as in Example 5.

IC50 [µM]	Structure (SMILES)
180	O=C(O)[C@H](CO)OP(=O)(O)O [L-2-phosphoglyceric acid]
450	O=C(O)C(O)COP(=O)(O)O (stereo not drawn) [3-phosphoglyceric acid]
180	O=C(O)[C@@H](CO)OP(=O)(O)O [D-2-phosphoglyceric acid]

Same assay, conditions: concentration not given

Structure (SMILES)	inhibitory activity on ATP transport
O=C(CO)[C@@H](O)[C@H](O)[C@H](O)COP(=O)(O)O [fructose-6-phosphate]	no inhibitory activity
CC(=O)SCCNC(=O)CCNC(=O)[C@H](O)C(C)(C)COP(=O)(O)OP(=O)(O)OC[C@H]1O[C@@H](n2cnc3c(N)ncnc32)[C@H](O)[C@@H]1OP(=O)(O)O [acetyl-CoA]	no inhibitory activity
O=C(O)CC(O)(CC(=O)O)C(=O)O [citric acid]	no inhibitory activity
C[C@H](O)C(=O)O [L-lactic acid]	no inhibitory activity
O=C(O)CC(=O)C(=O)O [oxaloacetic acid]	no inhibitory activity
NC(=O)c1ccc[n+]([C@@H]2O[C@H](COP(=O)([O-])OP(=O)(O)OC[C@H]3O[C@@H](n4cnc5c(N)ncnc54)[C@H](O)[C@@H]3O)[C@@H](O)[C@H]2O)c1 [NAD+]	no inhibitory activity
O=C(O)CC(O)C(=O)O (stereo not drawn) [malic acid]	no inhibitory activity
CC(=O)C(=O)O [pyruvic acid]	no inhibitory activity
O=C[C@H](O)[C@@H](O)[C@H](O)[C@H](O)COP(=O)(O)O [glucose-6-phosphate]	no inhibitory activity

Same assay, conditions: concentrations of up to 1 mM

Structure (SMILES)	inhibition of ATP transport
CC(=O)C(=O)O [pyruvic acid]	did not inhibit ATP transport

These compounds were tested on catecholamine transport (assay: Catecholamine (3H-dopamine) transport in chromaffin granule membranes). Settings: 1 µM reserpine.
Assay type: biochemical, bovine
Description: as §1
A catecholamine transport inhibition experiment was carried out in the same manner as the ATP transport experiment except that the experiment used a measurement liquid containing 20 mM MOPS-tris (pH 7.0), 0.1 M sucrose, 0.1 M potassium chloride, 5 mM magnesium acetate, and about 5 µg of chromaffin granule membranes. To 0.5 ml of the measurement liquid, 2 mM ATP was added, and the resulting mixture was incubated at 30°C for about 5 minutes, followed by addition of^3 [H]-dopamine thereto to a final concentration of 10 µM. After further incubation at 30°C for 15 minutes, 0.2 ml of the reaction liquid was subjected to suction filtration through a Millipore MCE membrane filter with a pore size of 0.45 µm, and the radioactivity on the filter was measured (N = 3). The substrate, ^3[H]-dopamine, was prepared by mixing 3,4-[RING-2,5,6-^3H]dihydroxyphenylethylamine (dopamine) (30 Ci/mmol) (manufactured by New England Nuclear) with dopamine hydrochloride (manufactured by LKT Laboratories) such that a final concentration of 0.1 mM was achieved during the use.
as §2

Structure (SMILES)	ATP-dependent dopamine transport
COC(=O)[C@H]1[C@H]2C[C@@H]3c4[nH]c5cc(OC)ccc5c4CCN3C[C@H]2C[C@@H](OC(=O)c2cc(OC)c(OC)c(OC)c2)[C@@H]1OC [reserpine]	almost completely blocked

The compounds below were run against T1, human VNUT (Homo sapiens, UniProt Q9BYT1) (assay: ATP loading into reconstituted liposomes containing human VNUT). Settings: pyruvic acid at a 50-fold higher concentration (5 mM).
T1 construct: made in house; host or cells: HIGH FIVE insect cells (baculovirus)
T1 sequence (Q9BYT1 1-430 isoform Q9BYT1-2): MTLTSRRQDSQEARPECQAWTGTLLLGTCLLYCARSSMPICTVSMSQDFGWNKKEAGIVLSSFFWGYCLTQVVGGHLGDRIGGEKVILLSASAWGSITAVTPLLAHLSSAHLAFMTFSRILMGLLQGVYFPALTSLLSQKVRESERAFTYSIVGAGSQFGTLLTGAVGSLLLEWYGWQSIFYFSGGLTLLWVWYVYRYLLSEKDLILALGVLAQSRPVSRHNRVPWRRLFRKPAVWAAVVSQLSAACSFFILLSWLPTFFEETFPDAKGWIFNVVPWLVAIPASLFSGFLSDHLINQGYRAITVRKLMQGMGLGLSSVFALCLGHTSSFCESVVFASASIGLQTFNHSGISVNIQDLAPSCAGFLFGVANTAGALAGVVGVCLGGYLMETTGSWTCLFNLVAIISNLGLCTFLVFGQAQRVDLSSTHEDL
Assay type: biochemical
Description: Human VNUT was prepared according to Reference C (Keisuke Sawada et al., 2008, Identification of a vesicular nucleotide transporter, Proc Natl Acad Sci USA, vol. 105, no. 15, 5683-5686). Insect cells (HIGH FIVE cells) were infected at MOI = 1 with a baculovirus in which a human VNUT expression system was incorporated. HIGH FIVE cells expressing VNUT (1 × 10^8 cells) were collected with a cell scraper, and suspended at about 8 mg/ml in 20 mM Tris-HCl (pH 8.0), 0.1 M potassium acetate, 10% glycerol, 10 µg/ml pepstatin A, and 10 µg/ml leupeptin, followed by homogenization of the cells using an ultrasonic generator (manufactured by Sonics Materials). […]
VNUT (protein, 20 µg) prepared by the above method was mixed with liposomes (lipid weight, 200 µg), and left to stand at -80°C for 30 minutes. […] A major band was detected at a position of about 68 kDa. The proteins after the electrophoresis with the ePAGEL E-T520 2-10% gradient gel (manufactured by Atto) were electrotransferred to a nitrocellulose sheet, and analyzed by Western blotting using an anti-human SLC17A9 (VNUT) rabbit polyclonal antibody (manufactured by Proteintech).
The ATP transport activity of the VNUT-containing reconstituted liposomes prepared by the above method was measured. […]

Structure (SMILES)	ATP loading into liposomes
CC(=O)C(=O)O [pyruvic acid]	did not inhibit ATP loading into liposomes
